Experimental data as given in PubChem BioAssay (NCI).
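A five-concentration, 48-hour dose response in 96-well plates underlies each endpoint, interpolated linearly between surrounding concentrations. Definition used: TGI = concentration required for complete inhibition of growth.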

Tests used:
Test in all cases: NCI-60 cell line screen, 48 h
[1] = system: MDA-MB-435
[2] = system: NCI-H23 lung
[3] = system: RPMI-8226 leukemia
[4] = system: IGROV1 ovarian
[5] = system: MDA-N
[6] = system: UACC-62 melanoma
[7] = system: M14 melanoma
[8] = system: OVCAR-4 ovarian
[9] = system: OVCAR-3 ovarian
[10] = system: SF-295 CNS
[11] = system: OVCAR-5 ovarian
[12] = system: NCI-H522 lung
[13] = system: KM12 colon
[14] = system: OVCAR-8 ovarian
[15] = system: UO-31 renal
[16] = system: SK-OV-3 ovarian
[17] = system: SF-268 CNS
[18] = system: DU-145 prostate
[19] = system: MCF7 breast
[20] = system: 786-0 renal
[21] = system: A549 NSCLC
[22] = system: TK-10 renal
[23] = system: HOP-92 NSCLC
[24] = system: COLO 205 colon
[25] = system: RXF 393 renal
[26] = system: CCRF-CEM leukemia
[27] = system: CAKI-1 renal
[28] = system: SF-539 CNS
[29] = system: U251 CNS
[30] = system: SK-MEL-5 melanoma
[31] = system: MDA-MB-231 breast
[32] = system: HS 578T breast
[33] = system: BT-549 breast
[34] = system: HCT-15 colon
[35] = system: NCI/ADR-RES ovarian
[36] = system: EKVX NSCLC
[37] = system: NCI-H460 lung
[38] = system: HT29 colon
[39] = system: SW-620 colon
[40] = system: HL-60(TB) leukemia
[41] = system: SK-MEL-2 melanoma
[42] = system: SNB-19 CNS
[43] = system: NCI-H226 lung
[44] = system: LOX IMVI melanoma
[45] = system: SK-MEL-28 melanoma
[46] = system: A498 renal
[47] = system: SR leukemia
[48] = system: MALME-3M melanoma
[49] = system: K-562 leukemia
[50] = system: ACHN renal
[51] = system: HCT-116 colon
[52] = system: SN12C renal
[53] = system: SNB-75 CNS
[54] = system: T-47D breast
[55] = system: PC-3 prostate
[56] = system: UACC-257 melanoma
[57] = system: HCC-2998 colon
[58] = system: HOP-62 NSCLC
[59] = system: MOLT-4 leukemia

With S=C(N/N=C(\c1ccccc1)c1ccccn1)NC1CCCCC1 the TGI [1] was > 100 µM, the TGI [2] was > 100 µM and the TGI [3] was > 100 µM. For the same molecule, the TGI [4] was > 100 µM, the TGI [5] was > 100 µM and the TGI [6] was > 100 µM. The TGI [7] was > 100 µM, the TGI [8] was > 100 µM and the TGI [9] was > 100 µM. For the same molecule, the TGI [10] was > 80.1 µM, the TGI [11] was > 100 µM and the TGI [12] was > 100 µM. For the same molecule, the TGI [13] was > 100 µM, the TGI [14] was 3.44 µM and the TGI [15] was > 100 µM. For the same molecule, the TGI [16] was > 100 µM, the TGI [17] was > 100 µM and the TGI [18] was > 100 µM. For the same molecule, the TGI [19] was > 100 µM, the TGI [20] was > 100 µM and the TGI [21] was > 100 µM. The TGI [22] was > 100 µM, the TGI [23] was > 100 µM and the TGI [24] was > 100 µM. The TGI [25] was > 100 µM, the TGI [26] was > 100 µM and the TGI [27] was > 100 µM. The TGI [28] was > 100 µM, the TGI [29] was > 100 µM and the TGI [30] was > 100 µM. The TGI [31] was > 100 µM, the TGI [32] was > 100 µM and the TGI [33] was > 100 µM. For the same molecule, the TGI [34] was > 100 µM, the TGI [35] was 1.59 µM and the TGI [36] was > 100 µM. The TGI [37] was > 100 µM, the TGI [38] was > 100 µM and the TGI [39] was > 100 µM. The TGI [40] was > 100 µM, the TGI [41] was > 100 µM and the TGI [42] was > 100 µM. The TGI [43] was > 100 µM, the TGI [44] was 23.6 µM and the TGI [45] was > 100 µM. For the same molecule, the TGI [46] was > 100 µM, the TGI [47] was > 100 µM and the TGI [48] was > 100 µM. The TGI [49] was > 100 µM, the TGI [50] was > 100 µM and the TGI [51] was > 100 µM. For the same molecule, the TGI [52] was > 100 µM, the TGI [53] was > 100 µM and the TGI [54] was > 100 µM. The TGI [55] was > 100 µM, the TGI [56] was > 100 µM and the TGI [57] was > 100 µM. The TGI [58] was > 100 µM and the TGI [59] was > 100 µM.

For CSc1nc(C)cc(Nc2ccc(O)c(CN3CCOCC3)c2)n1, the TGI [1] was > 100 µM, the TGI [2] was > 100 µM and the TGI [3] was > 100 µM. For the same molecule, the TGI [4] was > 100 µM, the TGI [5] was > 100 µM and the TGI [6] was > 100 µM. The TGI [7] was > 100 µM, the TGI [8] was > 100 µM and the TGI [9] was > 100 µM. The TGI [10] was > 100 µM, the TGI [11] was > 100 µM and the TGI [12] was > 100 µM. For the same molecule, the TGI [13] was > 100 µM, the TGI [14] was > 100 µM and the TGI [15] was > 100 µM. The TGI [16] was > 100 µM, the TGI [17] was > 100 µM and the TGI [18] was > 100 µM. For the same molecule, the TGI [19] was > 100 µM, the TGI [20] was > 100 µM and the TGI [21] was > 100 µM. The TGI [22] was > 100 µM, the TGI [23] was > 100 µM and the TGI [24] was > 100 µM. The TGI [25] was > 100 µM, the TGI [26] was > 100 µM and the TGI [27] was > 100 µM. For the same molecule, the TGI [28] was > 100 µM, the TGI [29] was > 100 µM and the TGI [30] was > 100 µM. For the same molecule, the TGI [31] was > 100 µM, the TGI [32] was > 100 µM and the TGI [33] was > 100 µM. The TGI [34] was > 100 µM, the TGI [35] was > 100 µM and the TGI [36] was > 100 µM. For the same molecule, the TGI [37] was > 100 µM, the TGI [38] was > 100 µM and the TGI [39] was > 100 µM. For the same molecule, the TGI [40] was > 100 µM, the TGI [41] was > 100 µM and the TGI [42] was > 100 µM. The TGI [43] was > 100 µM, the TGI [44] was > 100 µM and the TGI [45] was > 100 µM. For the same molecule, the TGI [46] was > 100 µM, the TGI [47] was > 100 µM and the TGI [48] was > 100 µM. The TGI [49] was > 100 µM, the TGI [50] was > 100 µM and the TGI [51] was > 100 µM. The TGI [52] was > 100 µM, the TGI [53] was > 100 µM and the TGI [54] was > 100 µM. For the same molecule, the TGI [55] was > 100 µM, the TGI [56] was > 100 µM and the TGI [57] was > 100 µM. For the same molecule, the TGI [58] was > 100 µM and the TGI [59] was > 100 µM.

In the case of COC(=O)C1Cc2ccc(O)c(O)c2CN1 (centres undefined), the TGI [1] is reported as 30.5 µM, the TGI [2] is reported as 31.8 µM and the TGI [3] is reported as 68 µM. The TGI [4] was > 100 µM, the TGI [5] was 30.8 µM and the TGI [6] was 39 µM. The TGI [7] was 29.7 µM, the TGI [8] was 39.3 µM and the TGI [9] was > 100 µM. The TGI [10] was 20.4 µM, the TGI [11] was 70.3 µM and the TGI [12] was > 100 µM. For the same molecule, the TGI [13] was > 100 µM, the TGI [15] was 51.8 µM and the TGI [16] was > 100 µM. The TGI [18] was 81.2 µM, the TGI [19] was 32 µM and the TGI [20] was 31.8 µM. The TGI [21] was > 100 µM, the TGI [22] was > 100 µM and the TGI [23] was 86.7 µM. For the same molecule, the TGI [24] was > 100 µM, the TGI [25] was > 100 µM and the TGI [26] was > 100 µM. For the same molecule, the TGI [27] was > 100 µM, the TGI [28] was 32.5 µM and the TGI [29] was 31.2 µM. For the same molecule, the TGI [30] was 28.5 µM, the TGI [31] was 43.3 µM and the TGI [32] was 56 µM. The TGI [33] was 32.2 µM, the TGI [34] was 87.1 µM and the TGI [35] was 48.6 µM. For the same molecule, the TGI [36] was > 100 µM, the TGI [37] was > 100 µM and the TGI [38] was 55.7 µM. The TGI [39] was 40.7 µM, the TGI [40] was 72.6 µM and the TGI [41] was 31.2 µM. For the same molecule, the TGI [42] was > 100 µM, the TGI [43] was > 100 µM and the TGI [44] was 28.4 µM. The TGI [45] was 31 µM, the TGI [46] was > 100 µM and the TGI [47] was 82.2 µM. For the same molecule, the TGI [48] was 98.7 µM, the TGI [49] was 83.6 µM and the TGI [50] was > 100 µM. The TGI [51] was 52.6 µM, the TGI [52] was 30 µM and the TGI [53] was 34.4 µM. For the same molecule, the TGI [54] was > 100 µM, the TGI [55] was 84.3 µM and the TGI [56] was 29.2 µM. For the same molecule, the TGI [57] was > 100 µM, the TGI [58] was > 100 µM and the TGI [59] was 58.7 µM.

In the case of COC(=O)/C=C\C(C#N)(C#N)N=Cc1cccc(OC)c1, the TGI [1] is reported as 13.5 µM, the TGI [2] is reported as 16.4 µM and the TGI [3] is reported as > 28 µM. It also gave a TGI [4] of 24 µM, a TGI [5] of 17.2 µM and a TGI [6] of 31.8 µM. For the same molecule, the TGI [7] was 10.4 µM, the TGI [8] was 18.8 µM and the TGI [9] was 26.1 µM. It also gave a TGI [10] of 53.8 µM, a TGI [11] of 20.1 µM and a TGI [12] of 3 µM. The TGI [13] was 32.6 µM, the TGI [14] was 10.5 µM and the TGI [15] was 8.46 µM. For the same molecule, the TGI [16] was 47.1 µM, the TGI [17] was 33.4 µM and the TGI [18] was 27.7 µM. It also gave a TGI [19] of 38.9 µM, a TGI [20] of 13.7 µM and a TGI [21] of 35.1 µM. The TGI [22] was 4.78 µM, the TGI [23] was 7.29 µM and the TGI [24] was 5.06 µM. For the same molecule, the TGI [25] was 9.62 µM, the TGI [26] was > 50.8 µM and the TGI [27] was 5.17 µM. It also gave a TGI [28] of 7.83 µM, a TGI [29] of 32.2 µM and a TGI [30] of 31.4 µM. The TGI [31] was 29 µM, the TGI [32] was 38 µM and the TGI [33] was 20.4 µM. For the same molecule, the TGI [34] was 4.54 µM, the TGI [35] was 35.7 µM and the TGI [36] was 23.8 µM. It also gave a TGI [37] of 40.8 µM, a TGI [38] of 10.5 µM and a TGI [39] of 5.68 µM. The TGI [40] was > 100 µM, the TGI [41] was 32.4 µM and the TGI [42] was 46.3 µM. For the same molecule, the TGI [43] was 28.7 µM, the TGI [44] was > 50.8 µM and the TGI [45] was 29.4 µM. For the same molecule, the TGI [46] was 34.7 µM, the TGI [47] was > 24.5 µM and the TGI [48] was 4.37 µM. The TGI [49] was > 100 µM, the TGI [50] was 7.63 µM and the TGI [51] was 7.14 µM. For the same molecule, the TGI [52] was 27.1 µM, the TGI [53] was 29.6 µM and the TGI [54] was 18.9 µM. For the same molecule, the TGI [55] was 29.5 µM, the TGI [56] was 29.8 µM and the TGI [57] was 34.4 µM. The TGI [58] was > 62.1 µM and the TGI [59] was 17.7 µM.
